Results published in patent publication US8716355B2, “Hydroxylated tolans and related compounds in the treatment of a cancer” (Kent State University, priority 2007, dated 2014).

Columns and labels:
[1] = test system: rat-organ homogenates; conditions: cited from earlier work
[2] = test system: rat-organ homogenates; conditions: cited from earlier work; remark: listed apart in the source
[3] = test system: rat erythrocyte (RBC); conditions: cited from earlier work
[4] = test system: Vero cells; assay: Cytotoxicity (CD50) on Vero cells; assay type: cell-based; conditions: 48 hours of exposure
From the text: See Example II for tumor cell cytotoxicity of these compounds. […] NAB group 32 contains two compounds, Tolan-2 (also designated herein as KST-201) and Stil-2. Based on the NAB, they were classified as topological isomers. However, chemically they differ because Stil-2, a […], contained a double bonded linker, while Tolan-2 contained a triple bonded linker. The cytotoxicity of the two molecules on Vero cells differed markedly: Tolan-2 was less toxic than Stil-2.

[5] = test system: HSV-1; assay: HSV-1 replication in infected Vero cells (plaque assay); assay type: cell-based, Herpes Simplex Virus-Type 1; conditions: at CD50, 75% and 50% of CD50; 24, 48, 72 h
Protocol: For this purpose HSV-1 replication at 24, 48 and 72 h was examined in the presence or absence of varying concentrations of the polyphenol.
The SI is the ratio of the CD50 divided by a selected inhibitory concentration (IC %).
Viral inhibition by Tolan-3 appeared to occur after viral entry into cells. […] Subsequently, the compound was removed and replaced with culture medium alone, and the incubated continued for 48 or 72 more hrs. In a second experiment, HSV-1 infected Vero cells were incubated with 350 μM Tolan-3 for 48 h. Thereafter, the Tolan-3 was removed and replaced by medium and the incubation continued for an additional 24 h. Viral titers were calculated by a standard plaque assay.

[6] = test system: prostate cancer; assay: Prostate cancer patients (Example VIII A); assay type: in vivo, human; conditions: daily 10 μg to 5 mg/Kg; no significant differences between the four groups
Protocol: A group of 40 men aged 55-75 suffering from prostate cancer receive a daily dosage of between 10 μg and 5 mg/Kg body weight of KST-201, KST-213, KST-301 or KST-401 (10 patients per compound). Examination of the patients by clinical, radiographic and histopathological tests show significant shrinkage in tumors, and signs of cell death in 38% of the patients; there are no significant differences between the four treatment groups.

[7] = test system: bladder cancer; assay: Bladder cancer patients (Example VIII B); assay type: in vivo, human; conditions: intravenous 10 μg to 5 mg/kg over three months; for Patients with significant remission: no differences between compounds
Protocol: A group of 20 men and 20 women aged 50-75 with bladder cancer are treated by intravenous injection of between 10 μg and 5 mg/kg of KST-201, KST-213, KST-301 or KST-401. Each compound is given to a group of 5 men and 5 women) over a period of three months. Clinical, radiographic and histopathological tests show significant remission in 35% of patients, accompanied by signs of cell death in 45%. There are no significant differences between the results with the four compounds.

[8] = test system: breast cancer; assay: Breast cancer prevention, skin patch (Example VIII C); assay type: in vivo, human; conditions: transdermal patch 10 mg to 100 mg daily, one-year study
Protocol: This study investigates whether KST-201, KST-213, KST-301 and KST-401 administered transdermally each day through a skin patch aid in preventing breast cancer or metastatic cancer following cancer therapy. Patches are prepared with a lipophilic carrier which is readily absorbed through the skin (glycerol cold cream containing glycerin and peanut oil). The HT compound is mixed with the lipophilic cream such that each patch comprises 10 mg to 100 mg of active compound. The patch is applied to the skin each day, and rapid absorption occurs. After two hours, the patch is removed.

[9] = test system: ovarian cancer; assay: Ovarian cancer patients (Example VIII D); assay type: in vivo, human; conditions: daily gelatin capsule 200 mg
Protocol: A study is carried out in a group of 40 women with ovarian cancer of various grades to determine the effect of treatment with compounds of KST-201, KST-213, KST-301 and KST-401. The administration protocol involves daily administration of a gelatin capsule containing 200 mg of active compound.

[10] = test system: colon cancer; assay: Colon cancer patients (Example VIII E); assay type: in vivo, human; conditions: for Dissemination of the tumors: daily bolus injections (intravenous or intramuscular) of 2 g; for Cancer marker carcinoembryonic antigen (CEA) / Progression of the tumor: intravenous infusion 2 g daily for three weeks
Protocol: Eight patients suffering from advanced colon cancer are treated daily for three weeks with an intravenous infusion of 2 g of the compounds KST-201, KST-213, KST-301 or KST-401 dissolved in saline. Two patients are assigned to each compound. The compounds are dissolved in sterile saline. […] Progression of the tumor is also arrested over the treatment period.
Another eight patients with terminal colon cancer are treated by daily bolus injections (intravenous or intramuscular) of 2 g of KST-201, KST-213, KST-301 or KST-401.

[11] = test system: Mushroom tyrosinase; assay: Inhibition of mushroom tyrosinase activity; assay type: biochemical; conditions: concentration not given
Protocol: All chemical used for reagents were purchased from Sigma Chemical Company. KST201 at each tested concentration (1000, 250 and 100 μM) was dissolved in 10% ethanol from a master mixture of the drug prepared at 0.1M in 100% ethanol.
Mushroom tyrosinase (Sigma) was diluted in 50 mM phosphate buffer, pH 6.5 to yield a concentration of 16 U/μl. […] A master mix containing 0.5 mM L-DOPA [3,4-dihydroxy-1-phenylalanine], 10 mM Sodium L-tyrosine in 50 mM phosphate buffer, pH 6.5 was prepared. The KST-201 dilutions were preincubated with the enzyme for 20 minutes. The samples were pipetted into 24 well plates and the master mixture added quickly. The reaction was read using a kinetic format in which wells were read every 30 seconds over a course of 10 minutes at a wavelength of 475 nm using a Synergy HT Plate reader. A kinetic curve was generated for each sample compared to a total reaction with mushroom tyrosinase without a drug (total).

SMILES | Inhibition (%) of Fe2+ − VitC induced level of MDA at 15 μM, In rat brain [1] | Inhibition (%) of Fe2+ − VitC induced level of MDA at 15 μM, In rat kidney [1] | Inhibition (%) of Fe2+ − VitC induced level of MDA at 15 μM, In rat liver [1] | Inhibition (%) of autooxidation MDA level at 7.5 μM, In rat brain [2] | Inhibition (%) of autooxidation MDA level at 7.5 μM, In rat kidney [2] | Inhibition (%) of autooxidation MDA level at 7.5 μM, In rat liver [2] | Inhibition (%) of RBC hemolysis induced by H2O2 at 4 μM [3] | CD50 [4] | Log CD50 [4] | also measured
Oc1ccc(/C=C/c2ccccc2)cc1 [trans-4-Hydroxystilbene] | 43.36% | 29.23% | 32.85% | 6.64% | 19.88% | −2.31% | -5.14% | – | – | –
Oc1ccc(/C=C/c2ccc(O)cc2)cc1 [trans-4,4′-Dihydroxystilbene] | 90.66% | 85.23% | 68.37% | 85.31% | 62.11% | 89.23% | 67.17% | – | – | –
Oc1ccc(C#Cc2ccc(C(F)(F)F)cc2)cc1 [KST-213, 4-hydroxy-4′-trifluoromethyltolan] | – | – | – | – | – | – | – | 48.2 µM | 1.68 | Effect on HSV-1 viral replication in Vero cells (in words) [5]: substantially inhibited; Patients with significant shrinkage in tumors, and signs of cell death [6]: 38%; Patients with signs of cell death [7]: 45%; Patients with significant remission [7]: 35%; Breast cancer or metastatic cancer in high-risk group [8]: does not show any evidence of breast cancer or other metastatic cancer; Rate of production of ovarian cancer markers (Muc-1, Sp17) [9]: significant decrease; Tumor growth during study period [9]: Tumors regress or show no further growth; Dissemination of the tumors [10]: dissemination of the tumors is diminished; Cancer marker carcinoembryonic antigen (CEA) [10]: significant reduction; Progression of the tumor [10]: arrested
Oc1ccc(/C=C/c2ccccc2)cc1 [Stil-1] | – | – | – | – | – | – | – | 131 µM | 2.12 | –
Oc1cc(O)cc(/C=C/c2ccccc2)c1 [trans-3,5-Dihydroxystilbene] | 12.24% | 0.62% | 24.82% | −5.24% | 14.91% | −5.38% | 19.97% | – | – | –
Oc1cc(O)cc(C#Cc2cc(O)cc(O)c2)c1 [KST-401, 3,3′,5,5′-tetrahydroxytolan] | – | – | – | – | – | – | – | 103 µM | 2.01 | Effect on HSV-1 viral replication in Vero cells (in words) [5]: substantial viral inhibition; % inhibition of mushroom tyrosinase activity [11]: 22.7±6.5%; Patients with significant shrinkage in tumors, and signs of cell death [6]: 38%; Patients with signs of cell death [7]: 45%; Patients with significant remission [7]: 35%; Breast cancer or metastatic cancer in high-risk group [8]: does not show any evidence of breast cancer or other metastatic cancer; Rate of production of ovarian cancer markers (Muc-1, Sp17) [9]: significant decrease; Tumor growth during study period [9]: Tumors regress or show no further growth; Dissemination of the tumors [10]: dissemination of the tumors is diminished; Cancer marker carcinoembryonic antigen (CEA) [10]: significant reduction; Progression of the tumor [10]: arrested
Oc1ccc(/C=C/c2ccc(O)cc2)cc1 [Stil-2] | – | – | – | – | – | – | – | 53.3 µM | 1.73 | Effect on HSV-1 viral replication in Vero cells (in words) [5]: no substantial reduction in viral replication
Oc1ccc(/C=C/c2ccccc2)c(O)c1 [trans-2,4-Dihydroxystilbene] | 55.19% | 39.08% | 42.58% | 30.07% | 32.27% | 42.31% | 43.72% | – | – | –
Oc1cc(O)cc(/C=C/c2cc(O)cc(O)c2)c1 [Stil-4, tetrahydroxystilbene] | – | – | – | – | – | – | – | >200 µM | 2.30 | –
Oc1ccc(/C=C/c2ccccc2)cc1O [trans-3,4-Dihydroxystilbene] | 96.68% | 89.23% | 99.27% | – | – | – | 97.58% | – | – | –
Oc1ccc(/C=C/c2ccc(O)cc2O)cc1 [trans-2,4,4′-Trihydroxystilbene] | 94.40% | 87.69% | 92.46% | 90.91% | 66.46% | 93.85% | 81.85% | – | – | –
